From patent US7504517B2, “Kv1.5 potassium channel inhibitors” (Wyeth, priority 2006, dated 2009)

What was measured:
Kv1.5 = target: T1, Kv1.5 (Homo sapiens, UniProt P22460); experiment: Kv1.5 Patch Clamp EP; format: cell-based; details: whole cell patch clamp; for IC50: HEK or LTK- cells, at least four concentrations, n=3
T1 construct: expressed in transfected cells; host or cells: HEK or LTK- cells
Method: The external solution is standard Tyrodes solution. […] Inhibition was measured at the end of the 1 second pulses and expressed relative to controls. Initial Kv1.5 inhibition is estimated by single point determinations done at 1 μM.

HERG [1] = target: T2, HERG (Homo sapiens, UniProt Q12809)
T2 sequence (Q12809 whole entry): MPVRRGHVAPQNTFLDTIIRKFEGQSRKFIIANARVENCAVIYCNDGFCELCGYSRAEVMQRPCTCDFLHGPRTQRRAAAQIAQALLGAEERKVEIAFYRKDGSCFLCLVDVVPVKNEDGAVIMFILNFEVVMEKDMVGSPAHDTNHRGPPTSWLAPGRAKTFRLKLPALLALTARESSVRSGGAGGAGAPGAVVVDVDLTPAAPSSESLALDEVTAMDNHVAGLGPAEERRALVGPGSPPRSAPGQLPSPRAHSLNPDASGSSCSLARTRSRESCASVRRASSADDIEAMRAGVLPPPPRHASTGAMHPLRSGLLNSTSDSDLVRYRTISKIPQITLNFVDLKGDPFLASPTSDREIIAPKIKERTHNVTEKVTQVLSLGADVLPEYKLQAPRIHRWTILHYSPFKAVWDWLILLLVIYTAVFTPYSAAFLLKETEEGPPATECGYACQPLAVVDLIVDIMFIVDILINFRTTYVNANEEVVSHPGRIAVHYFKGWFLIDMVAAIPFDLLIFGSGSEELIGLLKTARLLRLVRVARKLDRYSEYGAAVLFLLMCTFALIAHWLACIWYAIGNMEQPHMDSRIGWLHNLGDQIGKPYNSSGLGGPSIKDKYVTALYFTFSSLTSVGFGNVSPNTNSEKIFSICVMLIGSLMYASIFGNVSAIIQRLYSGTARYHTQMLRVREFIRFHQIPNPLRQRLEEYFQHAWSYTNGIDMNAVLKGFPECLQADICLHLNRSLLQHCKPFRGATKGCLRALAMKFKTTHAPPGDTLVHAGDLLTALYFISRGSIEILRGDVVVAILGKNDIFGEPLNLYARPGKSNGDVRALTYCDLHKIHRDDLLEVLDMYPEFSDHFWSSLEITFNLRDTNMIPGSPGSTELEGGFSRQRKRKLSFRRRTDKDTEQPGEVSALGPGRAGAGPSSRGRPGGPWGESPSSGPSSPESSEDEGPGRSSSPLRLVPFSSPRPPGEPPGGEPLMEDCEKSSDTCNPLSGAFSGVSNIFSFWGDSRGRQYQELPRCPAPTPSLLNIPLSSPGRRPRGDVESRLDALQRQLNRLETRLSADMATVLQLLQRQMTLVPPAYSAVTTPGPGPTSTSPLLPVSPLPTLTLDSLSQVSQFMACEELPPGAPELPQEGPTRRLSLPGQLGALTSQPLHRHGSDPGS
Method: (§1) HERG currents are recorded by the whole cell mode of patch clamp electrophysiology as described by Hamill et al.^3 HERG is stably over expressed in HEK cells. Microelectrodes are pulled from borosilicate glass (TW150) and heat polished (tip resistance, 1.5 to 3 megaohms). The external solution is standard Tyrodes solution. The internal (microelectrode) solution contained: 110 mM KCl, 5 mM K2ATP, 5 mM K4BAPTA, 1 mM MgCl2 and 10 mM HEPES, adjusted to pH 7.2 with KOH. […] Compounds are prepared as 10-20 mM DMSO stocks and diluted to appropriate test concentrations. […] Inhibition of HERG is measured at the peak of the tail currents and expressed relative to controls. Initial HERG activity is estimated by single point determinations run at 10 μM. Concentration response curves are generated for appropriate compounds utilizing at least four concentrations and an n=3. Curve fitting and IC50 estimating are done using Graphpad software (Ver. 4). • 1.

L-type calcium channels = experiment: FLIPR L-Type Calcium Channel Assay; format: cell-based, murine; details: HL-1 cells expressing endogenous L-type calcium channels; calcium influx after 20 mM KCl; read-out: L-type Ca^2+ IC50
How it was run: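 After a 15 min compound pre-incubation at 37 °C with 2.5 mM probenecid, L-type channels were opened by depolarising with 20 mM KCl (final). Fluorescence (488 nm excitation, 510–570 nm emission) was read for 5 min.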

HERG [2] = target: T2, HERG; experiment: HERG Patch Clamp EP; details: for inhibition at 10 µM: human, HEK cells stably overexpressing HERG
Method: as §1

[3] = 1.0 μM, single point, Kv1.5 stably over expressed in HEK or LTK- cells

T1 sequence (P22460 whole entry): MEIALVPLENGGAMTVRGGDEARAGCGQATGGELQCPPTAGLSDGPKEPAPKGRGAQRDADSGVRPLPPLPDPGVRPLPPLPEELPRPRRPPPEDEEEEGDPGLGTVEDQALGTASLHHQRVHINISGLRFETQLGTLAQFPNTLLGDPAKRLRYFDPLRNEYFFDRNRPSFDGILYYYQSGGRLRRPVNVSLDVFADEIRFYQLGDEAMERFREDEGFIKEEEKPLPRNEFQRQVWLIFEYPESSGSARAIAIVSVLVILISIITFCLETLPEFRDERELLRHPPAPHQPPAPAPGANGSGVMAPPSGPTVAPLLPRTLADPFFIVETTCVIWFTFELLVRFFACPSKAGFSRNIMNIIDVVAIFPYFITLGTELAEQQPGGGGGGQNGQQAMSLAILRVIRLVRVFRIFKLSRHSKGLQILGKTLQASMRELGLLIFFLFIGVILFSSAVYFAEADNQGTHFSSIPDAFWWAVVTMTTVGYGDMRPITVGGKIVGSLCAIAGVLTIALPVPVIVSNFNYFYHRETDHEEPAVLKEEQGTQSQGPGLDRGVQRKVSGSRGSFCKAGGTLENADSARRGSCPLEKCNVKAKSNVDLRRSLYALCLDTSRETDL

Row | Compound | Kv1.5% inhibition @ 1.0 μM (Kv1.5; [3]) [%] | IC50 (L-type calcium channels) [µM] | inhibition at 1 µM (Kv1.5; [3]) [%] | IC50 (Kv1.5) [µM] | HERG % Inhib. @ 10 μM (HERG [1]) [%] | inhibition at 10 µM (HERG [2]) [%] | IC50 (HERG [2]) [µM]
1 | 1-(Methoxycarbonylamino)-3-[2-(4-methoxyphenyl)ethyl]-4-[4-(tert-butyl)phenyl]-2-imidazolidinone [Compound 80] | 77 | 20 |  |  | 51 |  | 
2 | COc1ccc(CCN2C(=O)N(NCc3ccncc3)CC2c2ccc(C)c(C)c2)cc1 (stereo not drawn) [Compound 84, 4-(3,4-Dimethylphenyl)-3-[2-(4-methoxyphenyl)ethyl]-1-[(pyridin-4-ylmethyl)amino]-imidazolidin-2-one] |  | 10 | 67 | 0.57 |  | 73 | 
3 | COc1ccc(CCN2C(=O)N(NC(=O)OC(C)(C)C)CC2c2ccc(C)c(C)c2)cc1 (stereo not drawn) [Compound 85, {4-(3,4-dimethylphenyl)-3-[2-(4-methoxyphenyl)ethyl]-2-oxo-imidazolidin-1-yl}-carbamic acid tert-butyl ester] |  | 3.3 | 92 |  |  | 52 | 
4 | COc1ccc(CCN2C(=O)N(NCc3ccccc3)CC2c2ccc(C)c(C)c2)cc1 (stereo not drawn) [Compound 88, 1-Benzylamino-4-(3,4-dimethylphenyl)-3-[2-(4-methoxyphenyl)ethyl]-2-imidazolidinone] |  | 11 | 94 | 0.399 |  | 90 | 
5 | COc1ccc(CCN2C(=O)N(NCc3ccc(F)cc3)CC2c2ccc(C)c(C)c2)cc1 (stereo not drawn) [Compound 89, 1-[(4-Fluorophenylmethyl)amino]-3-[2-(4-methoxyphenyl)ethyl]-4-(3,4-dimethylphenyl)-2-imidazolidinone] |  | 7.6 | 85 |  |  | 98 | 
6 | COc1ccc(CCN2C(=O)N(NCc3ccc(N(C)C)cc3)CC2c2ccc(OC)cc2)cc1 (stereo not drawn) [Compound 90, 1-[(4-(Dimethylamino)phenylmethyl)amino]-3-[2-(4-methoxyphenyl)ethyl]-4-(4-methoxyphenyl)-2-imidazolidinone] |  | 7 | 74 |  |  | 28 | 
7 | COc1ccc(CCN2C(=O)N(NCc3ccc(N(C)C)cc3)CC2c2ccc(C)c(C)c2)cc1 (stereo not drawn) [Compound 92, 1-[(4-(Dimethylamino)phenylmethyl)amino]-3-[2-(4-methoxyphenyl)ethyl]-4-(3,4-dimethylphenyl)-2-imidazolidinone] |  | 30 | 95 | 0.353 |  | 58 | 5.6
8 | COc1ccc(CCN2C(=O)N(NCc3cccnc3)CC2c2ccc(C)c(C)c2)cc1 (stereo not drawn) [Compound 94, 1-[(Pyridin-3-ylmethyl)amino]-3-[2-(4-methoxyphenyl)ethyl]-4-(3,4-dimethylphenyl)-2-imidazolidinone] |  | 13 | 67 |  |  | 35 | 
9 | COc1ccc(CCN2C(=O)N(NCc3cnc4ccccc4c3)CC2c2ccc(C)c(C)c2)cc1 (stereo not drawn) [Compound 96, 4-(3,4-Dimethylphenyl)-3-[2-(4-methoxyphenyl)ethyl]-1-[(quinolin-3-ylmethyl)-amino]-2-imidazolidinone] |  | 1.9 | 86 |  |  | 87 | 
10 | COc1ccc(CCN2C(=O)N(N(CCn3ccnc3)C(=O)C(C)C)CC2c2ccc(C(C)(C)C)cc2)cc1 (stereo not drawn) [Compound 99, 1-N-[2-(Imidazol-1-yl)ethyl]-N-[iso-butyroyl]amino-3-[2-(4-methoxyphenyl)-ethyl]-4-[(4-tert-butyl)phenyl]-2-imidazolidinone] |  | 4.9 | 73 |  |  | 90 | 
11 | COc1ccc(CCN2C(=O)N(N(CCn3ccnc3)C(C)=O)CC2c2ccc(C(C)(C)C)cc2)cc1 (stereo not drawn) [Compound 100, 1-N-[2-(Imidazol-1-yl)ethyl]-N-[acetyl]amino-3-[2-(4-methoxyphenyl)ethyl]-4-[(4-tert-butyl)phenyl]-2-imidazolidinone] |  | 16 | 46 |  |  | 92 | 

Now from value to compound, other results behind:

Row | Kv1.5% inhibition @ 1.0 μM (Kv1.5; [3]) [%] | IC50 (L-type calcium channels) [µM] | inhibition at 1 µM (Kv1.5; [3]) [%] | IC50 (Kv1.5) [µM] | Compound | HERG % Inhib. @ 10 μM (HERG [1]) [%] | inhibition at 10 µM (HERG [2]) [%] | IC50 (HERG [2]) [µM]
12 |  | 19 | 81 |  | COc1ccc(C2CN(NS(=O)(=O)Cc3cccnc3)C(=O)N2CCCc2ccccc2)cc1 (stereo not drawn) [Compound 101, 1-[(Pyridin-3-yl)methylsulfonyl]amino-3-(3-phenylpropyl)-4-(4-methoxyphenyl)-2-imidazolidinone] |  | 24 | 
13 |  | 21 | 87 |  | COc1ccc(CCCN2C(=O)N(NS(=O)(=O)CC(N)=O)CC2c2ccc(C3CC3)cc2)cc1 (stereo not drawn) [Compound 104, 1-[(2-Amino-2-oxoethyl)sulfonylamino]-3-[3-(4-methoxyphenyl)propyl]-4-(4-cyclopropylphenyl)-2-imidazolidinone] |  | 56 | 
14 |  | 30 | 74 | 0.474 | COc1ccc(CCN2C(=O)N(NS(C)(=O)=O)C[C@H]2c2ccc(OC)cc2)cc1 [Compound 106, 1-(Methylsulfonylamino)-3-[2-(4-methoxyphenyl)ethyl]-4-(R)-(4-methoxyphenyl)-2-imidazolidinone] |  | 17 | 35
15 |  | 39 | 41 | 1.1 | COc1ccc(CCN2C(=O)N(NS(C)(=O)=O)C[C@@H]2c2ccc(OC)cc2)cc1 [Compound 107, N-{(4S)-4-(4-methoxyphenyl)-3-[2-(4-methoxyphenyl)ethyl]-2-oxoimidazolidin-1-yl}methanesulfonamide] |  |  | 54
16 |  | 15 | 75 |  | COc1ccc(CCN2C(=O)N(NS(=O)(=O)CCS(C)(=O)=O)CC2c2ccc(C3CC3)cc2)cc1 (stereo not drawn) [Compound 114, N-{4-(4-cyclopropylphenyl)-3-[2-(4-methoxyphenyl)ethyl]-2-oxoimidazolidin-1-yl}-2-(methylsulfonyl)ethanesulfonamide] |  | 55 | 
17 |  | 2 | 80 |  | COc1ccc(CCCN2C(=O)N(N)CC2c2ccc(C(C)(C)C)cc2)cc1 (stereo not drawn) [Compound 119, 1-amino-4-(4-tert-butylphenyl)-3-[3-(4-methoxyphenyl)propyl]imidazolidin-2-one] |  | 70 | 
18 |  | 19 | 91 |  | COc1ccc(CCCN2C(=O)N(NS(=O)(=O)CS(C)(=O)=O)CC2c2ccc(C3CC3)cc2)cc1 (stereo not drawn) [Compound 127, N-{4-(4-cyclopropylphenyl)-3-[3-(4-methoxyphenyl)propyl]-2-oxoimidazolidin-1-yl}-1-(methylsulfonyl)methanesulfonamide] |  | 54 | 
19 |  | 15 | 83 |  | COc1ccc(CCN2C(=O)N(N(CCn3ccnc3)C(=O)OC(C)(C)C)CC2c2ccc(C(C)(C)C)cc2)cc1 (stereo not drawn) [Compound 146, tert-butyl {4-(4-tert-butylphenyl)-3-[2-(4-methoxyphenyl)ethyl]-2-oxoimidazolidin-1-yl}[2-(1H-imidazol-1-yl)ethyl]carbamate] |  | 86 | 
20 |  | 30 | 49 |  | COc1ccc(CCN2C(=O)N(NS(C)(=O)=O)C[C@H]2c2ccc(OC(F)F)cc2)cc1 [Compound 170, N-{(4R)-4-[4-(difluoromethoxy)phenyl]-3-[2-(4-methoxyphenyl)ethyl]-2-oxoimidazolidin-1-yl}methanesulfonamide] |  | 62 | 
21 |  | 30 | 71 | 0.531 | COc1ccc(CCN2C(=O)N(NS(C)(=O)=O)C[C@@H]2c2ccc(OC(F)F)cc2)cc1 [Compound 171, N-{(4S)-4-[4-(difluoromethoxy)phenyl]-3-[2-(4-methoxyphenyl)ethyl]-2-oxoimidazolidin-1-yl}methanesulfonamide] |  | 55 | 5.8
22 |  | 9.8 | 55 |  | COc1ccc(CCN2C(=O)N(NS(C)(=O)=O)C[C@H]2c2ccc(C(C)(C)C)cc2)cc1 [Compound 172, N-{(4R)-4-(4-tert-butylphenyl)-3-[2-(4-methoxyphenyl)ethyl]-2-oxoimidazolidin-1-yl}methanesulfonamide] |  | 51 | 
23 |  | 14.6 | 94 |  | COc1ccc(CCN2C(=O)N(NS(C)(=O)=O)C[C@@H]2c2ccc(C(C)(C)C)cc2)cc1 [Compound 173, N-{(4S)-4-(4-tert-butylphenyl)-3-[2-(4-methoxyphenyl)ethyl]-2-oxoimidazolidin-1-yl}methanesulfonamide] |  | 48 | 
